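96-well plates; 48 h exposure; 5 concentrations. Endpoints by linear interpolation between flanking doses. Not reached: highest tested concentration assigned. TGI: total growth inhibition.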
How the values were obtained:
Experiment in all cases: DTP human tumour cell line panel, 48 h
[1] = system: M14 melanoma
[2] = system: KM12 colon
[3] = system: NCI-H460 lung
[4] = system: TK-10 renal
[5] = system: A549 NSCLC
[6] = system: MOLT-4 leukemia
[7] = system: HCT-15 colon
[8] = system: IGROV1 ovarian
[9] = system: RPMI-8226 leukemia
[10] = system: UACC-257 melanoma
[11] = system: SNB-78 CNS
[12] = system: HOP-92 NSCLC
[13] = system: K-562 leukemia
[14] = system: NCI-H226 lung
[15] = system: COLO 205 colon
[16] = system: MALME-3M melanoma
[17] = system: NCI-H23 lung
[18] = system: EKVX NSCLC
[19] = system: XF 498 CNS
[20] = system: OVCAR-4 ovarian
[21] = system: SF-539 CNS
[22] = system: SK-OV-3 ovarian
[23] = system: HCT-116 colon
[24] = system: LXFL 529 NSCLC
[25] = system: KM20L2 colon
[26] = system: 786-0 renal
[27] = system: HT29 colon
[28] = system: SN12C renal
[29] = system: OVCAR-8 ovarian
[30] = system: OVCAR-5 ovarian
[31] = system: SF-295 CNS
[32] = system: CAKI-1 renal
[33] = system: M19-MEL melanoma
[34] = system: SK-MEL-28 melanoma
[35] = system: SW-620 colon
[36] = system: ACHN renal
[37] = system: DMS 273 small cell lung
[38] = system: RXF 393 renal
[39] = system: OVCAR-3 ovarian
[40] = system: SK-MEL-5 melanoma
[41] = system: SK-MEL-2 melanoma
[42] = system: U251 CNS
[43] = system: SNB-75 CNS
[44] = system: DMS 114 small cell lung
[45] = system: UACC-62 melanoma
[46] = system: DLD-1 colon
[47] = system: SR leukemia
[48] = system: UO-31 renal
[49] = system: NCI-H522 lung
[50] = system: SF-268 CNS
[51] = system: A498 renal
[52] = system: HL-60(TB) leukemia
[53] = system: HOP-62 NSCLC
[54] = system: HCC-2998 colon
[55] = system: CCRF-CEM leukemia
[56] = system: SNB-19 CNS
[57] = system: LOX IMVI melanoma

Measured: TGI

COC(=O)c1cc(OC(C)=O)c2c(OC)ccc(OC)c2c1
> 100 µM: [1] | [2] | [3] | [4] | [5] | [6] | [7] | [8] | [9] | [10] | [11] | [12] | [13] | [14] | [15] | [16] | [17] | [18] | [19] | [20] | [21] | [22] | [23] | [24] | [25] | [26] | [27] | [28] | [29] | [30] | [31] | [32] | [33] | [34] | [35] | [36] | [37] | [38] | [39] | [40] | [41] | [42] | [43] | [44] | [45] | [46] | [47]

O=C1NC2C(=O)N(Cc3ccccc3)C(=O)C2N1 (configuration not stated)
> 100 µM: [48] | [1] | [2] | [49] | [3] | [4] | [5] | [50] | [6] | [51] | [7] | [8] | [9] | [10] | [11] | [12] | [13] | [14] | [15] | [16] | [17] | [18] | [19] | [20] | [21] | [22] | [23] | [52] | [24] | [25] | [26] | [27] | [28] | [53] | [54] | [30] | [31] | [32] | [33] | [55] | [34] | [35] | [36] | [38] | [39] | [40] | [42] | [43] | [56] | [57] | [44] | [45] | [46] | [47]

[N-]=[N+]=Nc1ccccc1Oc1ccccc1
> 100 µM: [48] | [1] | [2] | [49] | [3] | [4] | [5] | [50] | [6] | [51] | [7] | [8] | [9] | [10] | [11] | [13] | [14] | [15] | [17] | [18] | [19] | [20] | [21] | [22] | [23] | [52] | [24] | [25] | [26] | [27] | [28] | [29] | [53] | [54] | [30] | [31] | [32] | [33] | [34] | [35] | [36] | [37] | [39] | [40] | [41] | [42] | [43] | [56] | [57] | [44] | [45] | [46] | [47]

COc1ccc(C2C(Cl)C(=O)N2NC(=O)c2ccc(N)cc2)cc1 (configuration not stated)
> 100 µM: [48] | [1] | [2] | [49] | [3] | [4] | [5] | [6] | [51] | [7] | [8] | [9] | [10] | [11] | [12] | [13] | [14] | [15] | [16] | [17] | [18] | [19] | [20] | [21] | [22] | [23] | [52] | [24] | [25] | [26] | [27] | [28] | [29] | [53] | [54] | [30] | [31] | [32] | [33] | [55] | [34] | [35] | [36] | [37] | [39] | [40] | [41] | [42] | [43] | [56] | [57] | [44] | [45] | [46]

O=C1C2c3[nH]c4ccccc4c3C3CCCC3C2C(=O)N1c1ccccc1 (configuration not stated)
> 100 µM: [1] | [2] | [3] | [4] | [5] | [50] | [6] | [51] | [7] | [8] | [9] | [11] | [13] | [15] | [16] | [17] | [18] | [19] | [20] | [21] | [22] | [24] | [26] | [27] | [28] | [29] | [54] | [31] | [33] | [55] | [34] | [35] | [36] | [37] | [38] | [39] | [40] | [42] | [43] | [57] | [44] | [45] | [46] | [47]

From PubChem BioAssay (NCI)
